# Source: ChEMBL document CHEMBL4819053, “Alkyne-Bridged α-Conotoxin Vc1.1 Potently Reverses Mechanical Allodynia in Neuropathic Pain Models” (J Med Chem, 2021)
# pIC50: −log10 of the molar value. Active and inactive are the calls of the source.
# How the values were obtained:
# [1] = molecular target: T1, GABA-B receptor (Homo sapiens) (UniProt Q9UBS5+O75899); experiment: Agonist activity at human GABAB expressed in HEK293T cells co-transfected with human CaV2.2-beta3 channel assessed as inhibition of CaV2.2-mediated Ba2+ peak-current amplitude at 100 nM at -80 to 10 mV holding potential after 72 hrs by whole cell patch clamp assay relative to control; format: cell-based; conditions: filed as agonist
# [2] = molecular target: T2, Neuronal acetylcholine receptor; alpha9/alpha10 (Homo sapiens) (UniProt Q9UGM1+Q9GZZ6); experiment: Antagonist activity at human alpha9alpha10 nAChR expressed in Xenopus laevis oocytes assessed as inhibition of Ach-induced response incubated for 5 mins by two electrode voltage-clamp assay; format: cell-based; conditions: Oocyte, filed as antagonist, dose 1-30 µM
# [3] = molecular target: Neuronal acetylcholine receptor; alpha3/beta4 (Homo sapiens) (UniProt P30926+P32297); experiment: Antagonist activity at human alpha3beta4 nAChR expressed in Xenopus laevis oocytes assessed as inhibition of Ach-induced response at 1 to 30 uM incubated for 5 mins by two electrode voltage-clamp assay; format: cell-based; conditions: Oocyte, filed as antagonist, dose 1-30 µM
# [4] = molecular target: T1, GABA-B receptor (Homo sapiens); experiment: Agonist activity at human GABAB expressed in HEK293T cells co-transfected with human CaV2.2-alpha2delta1 channel assessed as inhibition of CaV2.2-mediated Ba2+ peak-current amplitude at 100 nM at -80 to 10 mV holding potential after 72 hrs by whole cell patch clamp assay relative to control; format: cell-based; conditions: filed as agonist
# [5] = molecular target: Nicotinic acetylcholine receptor alpha6/alpha3/beta4 (Homo sapiens) (UniProt P30926+P32297+Q15825); experiment: Antagonist activity at human alpha6/alpha3beta4 nAChR expressed in Xenopus laevis oocytes assessed as inhibition of Ach-induced response at 1 to 30 uM incubated for 5 mins by two electrode voltage-clamp assay; format: cell-based; conditions: Oocyte, filed as antagonist, dose 1-30 µM
# [6] = molecular target: GABA-B receptor (Homo sapiens, UniProt O75899+Q9UBS5); experiment: Agonist activity at human GABAB expressed in HEK293T cells co-transfected with human CaV2.2 channel assessed as inhibition of CaV2.2-mediated Ba2+ peak-current amplitude at -80 to 10 mV holding potential after 72 hrs by whole cell patch clamp assay; format: cell-based
# [7] = molecular target: T3, Neuronal acetylcholine receptor; alpha3/beta2 (Homo sapiens) (UniProt P17787+P32297); experiment: Antagonist activity at human alpha3beta2 nAChR expressed in Xenopus laevis oocytes assessed as inhibition of Ach-induced response incubated for 5 mins by two electrode voltage-clamp assay; format: cell-based; conditions: Oocyte, filed as antagonist, dose 1-30 µM
# [8] = molecular target: Neuronal acetylcholine receptor subunit alpha-7 (Homo sapiens) (UniProt P36544); experiment: Antagonist activity at human alpha7 nAChR expressed in Xenopus laevis oocytes assessed as inhibition of Ach-induced response incubated for 5 mins by two electrode voltage-clamp assay; format: cell-based; conditions: Oocyte, dose 1-30 µM
# [9] = molecular target: T1, GABA-B receptor (Homo sapiens); experiment: Agonist activity at human GABAB expressed in HEK293T cells co-transfected with human CaV2.2-alpha1B channel assessed as inhibition of CaV2.2-mediated Ba2+ peak-current amplitude at 100 nM at -80 to 10 mV holding potential after 72 hrs by whole cell patch clamp assay relative to control; format: cell-based; conditions: filed as agonist
# [10] = molecular target: T3, Neuronal acetylcholine receptor; alpha3/beta2 (Homo sapiens); experiment: Antagonist activity at human alpha3beta2 nAChR expressed in Xenopus laevis oocytes assessed as inhibition of Ach-induced response at 30 uM incubated for 5 mins by two electrode voltage-clamp assay relative to control; format: cell-based; conditions: Oocyte
# [11] = molecular target: T2, Neuronal acetylcholine receptor; alpha9/alpha10 (Homo sapiens); experiment: Antagonist activity at human alpha9/alpha10 nAChR expressed in Xenopus laevis oocytes assessed as inhibition of Ach-induced response at 30 uM incubated for 5 mins by two electrode voltage-clamp assay; format: cell-based; conditions: Oocyte
# [12] = test system: Rattus norvegicus; experiment: Antiallodynic activity in Sprague-Dawley rat model of neuropathic mechanical allodynia assessed as increase in paw withdrawal threshold at 0.1 mg/kg, IM measured at 2 hr post last dose by von Frey test; format: functional
# [13] = test system: Rattus norvegicus; experiment: Antiallodynic activity in Sprague-Dawley rat model of neuropathic mechanical allodynia assessed as increase in paw withdrawal threshold at 0.1 mg/kg, IM measured at 4 hr post last dose by von Frey test; format: functional
# [14] = test system: Rattus norvegicus; experiment: Antiallodynic activity in Sprague-Dawley rat model of neuropathic mechanical allodynia assessed as increase in paw withdrawal threshold administered intramuscularly measured at 1 to 24 hrs post last dose by von Frey test; format: functional, organism-based; conditions: dose 0.03-0.1 mg/kg, time 1-24 hrs
# [15] = test system: Rattus norvegicus; experiment: Antiallodynic activity in Sprague-Dawley rat model of neuropathic mechanical allodynia assessed as increase in paw withdrawal threshold at 0.1 mg/kg, IM measured at 1 hr post last dose by von Frey test; format: functional
# [16] = test system: Rattus norvegicus; experiment: Antiallodynic activity in Sprague-Dawley rat model of neuropathic mechanical allodynia assessed as increase in paw withdrawal threshold at 0.1 mg/kg, IM measured at 24 hrs post last dose by von Frey test; format: functional
# [17] = test system: Rattus norvegicus; experiment: Antiallodynic activity in Sprague-Dawley rat model of neuropathic mechanical allodynia assessed as increase in paw withdrawal threshold at 0.1 mg/kg, IM measured at 6 hr post last dose by von Frey test; format: functional
# Sequence of GABA-B receptor (Q9UBS5 whole entry): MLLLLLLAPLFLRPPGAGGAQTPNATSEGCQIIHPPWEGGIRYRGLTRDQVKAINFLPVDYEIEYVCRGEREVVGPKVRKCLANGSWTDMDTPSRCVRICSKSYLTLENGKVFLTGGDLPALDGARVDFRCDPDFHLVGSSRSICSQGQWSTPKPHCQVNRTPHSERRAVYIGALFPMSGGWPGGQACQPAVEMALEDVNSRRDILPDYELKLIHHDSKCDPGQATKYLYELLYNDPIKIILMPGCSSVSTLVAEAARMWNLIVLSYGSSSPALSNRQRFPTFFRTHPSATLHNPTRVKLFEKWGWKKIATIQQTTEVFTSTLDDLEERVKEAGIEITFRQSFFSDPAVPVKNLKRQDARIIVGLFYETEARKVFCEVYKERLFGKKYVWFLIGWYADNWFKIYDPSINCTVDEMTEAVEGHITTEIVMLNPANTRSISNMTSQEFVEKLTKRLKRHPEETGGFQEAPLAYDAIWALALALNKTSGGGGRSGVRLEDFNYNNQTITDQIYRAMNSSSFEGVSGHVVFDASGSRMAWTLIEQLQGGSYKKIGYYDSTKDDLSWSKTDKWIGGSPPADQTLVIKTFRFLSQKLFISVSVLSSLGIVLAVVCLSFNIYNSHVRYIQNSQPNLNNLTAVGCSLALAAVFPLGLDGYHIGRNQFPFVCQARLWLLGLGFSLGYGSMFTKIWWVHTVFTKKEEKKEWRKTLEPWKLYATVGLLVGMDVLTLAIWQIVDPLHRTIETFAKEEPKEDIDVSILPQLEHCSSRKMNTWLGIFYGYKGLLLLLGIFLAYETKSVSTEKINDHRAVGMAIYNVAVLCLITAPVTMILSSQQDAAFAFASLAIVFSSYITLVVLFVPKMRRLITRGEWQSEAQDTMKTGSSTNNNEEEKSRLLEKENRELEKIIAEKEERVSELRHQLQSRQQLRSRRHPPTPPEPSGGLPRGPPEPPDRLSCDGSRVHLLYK
# Sequence of GABA-B receptor (O75899 whole entry): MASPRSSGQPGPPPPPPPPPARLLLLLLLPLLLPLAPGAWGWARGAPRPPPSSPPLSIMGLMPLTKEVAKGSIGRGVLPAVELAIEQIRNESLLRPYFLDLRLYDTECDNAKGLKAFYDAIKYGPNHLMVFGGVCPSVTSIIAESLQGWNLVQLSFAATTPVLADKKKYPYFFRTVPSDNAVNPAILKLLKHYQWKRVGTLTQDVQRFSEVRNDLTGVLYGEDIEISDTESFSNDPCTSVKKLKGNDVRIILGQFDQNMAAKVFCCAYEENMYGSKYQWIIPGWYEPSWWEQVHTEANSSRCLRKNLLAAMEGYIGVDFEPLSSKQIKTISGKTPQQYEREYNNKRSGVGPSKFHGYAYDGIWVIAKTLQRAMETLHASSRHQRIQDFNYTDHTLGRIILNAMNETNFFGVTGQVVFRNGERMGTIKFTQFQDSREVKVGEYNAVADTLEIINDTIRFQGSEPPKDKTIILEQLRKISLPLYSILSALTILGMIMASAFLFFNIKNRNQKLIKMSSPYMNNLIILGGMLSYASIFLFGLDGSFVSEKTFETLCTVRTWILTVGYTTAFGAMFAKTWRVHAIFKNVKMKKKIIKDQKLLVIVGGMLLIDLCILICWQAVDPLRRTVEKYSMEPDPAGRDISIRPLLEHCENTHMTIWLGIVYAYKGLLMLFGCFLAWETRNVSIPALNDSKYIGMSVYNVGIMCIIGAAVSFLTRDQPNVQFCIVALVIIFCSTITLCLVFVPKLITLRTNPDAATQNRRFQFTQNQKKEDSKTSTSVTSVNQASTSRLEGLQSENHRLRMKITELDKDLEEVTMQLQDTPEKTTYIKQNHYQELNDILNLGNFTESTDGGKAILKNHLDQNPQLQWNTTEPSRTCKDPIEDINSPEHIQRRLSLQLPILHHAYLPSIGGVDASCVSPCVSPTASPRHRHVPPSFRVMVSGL
# Sequence of Neuronal acetylcholine receptor subunit alpha-7 (Homo sapiens) (P36544 whole entry): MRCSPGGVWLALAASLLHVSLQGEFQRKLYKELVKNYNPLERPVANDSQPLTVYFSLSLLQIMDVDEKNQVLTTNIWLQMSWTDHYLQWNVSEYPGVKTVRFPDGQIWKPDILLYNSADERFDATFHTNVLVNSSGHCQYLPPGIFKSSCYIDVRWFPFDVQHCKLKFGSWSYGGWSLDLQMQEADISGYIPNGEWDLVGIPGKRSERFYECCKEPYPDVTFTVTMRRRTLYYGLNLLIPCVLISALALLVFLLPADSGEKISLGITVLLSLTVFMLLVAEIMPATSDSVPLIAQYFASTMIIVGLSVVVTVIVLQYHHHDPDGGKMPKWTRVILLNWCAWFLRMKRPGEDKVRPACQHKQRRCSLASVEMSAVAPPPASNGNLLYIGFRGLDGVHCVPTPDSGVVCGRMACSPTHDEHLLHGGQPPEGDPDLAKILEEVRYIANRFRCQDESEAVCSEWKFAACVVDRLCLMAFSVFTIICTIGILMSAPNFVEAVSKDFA
structure (smiles),measurement,setting,value
CC[C@H](C)[C@@H]1NC(=O)[C@H](CCC(=O)O)NC(=O)[C@@H]2CCCN2C(=O)[C@H](Cc2cnc[nH]2)NC(=O)[C@H](CC(=O)O)NC(=O)[C@H](Cc2ccc(O)cc2)NC(=O)[C@H](CC(N)=O)NC(=O)[C@@H]2CSSC[C@H](NC(=O)[C@@H](NC(=O)CN)CSSC[C@@H](C(N)=O)NC1=O)C(=O)N[C@@H](CO)C(=O)N[C@@H](CC(=O)O)C(=O)N1CCC[C@H]1C(=O)N[C@@H](CCCNC(=N)N)C(=O)N2,inhibition,[1],25%
same,inhibition,[2],Dose-Dependent Effect
same,inhibition,[3],Active
same,inhibition,[4],25%
same,inhibition,[5],Active
same,pIC50,[6],7.68
same,inhibition,[7],Dose-Dependent Effect
same,inhibition,[8]; filed as antagonist,Dose-Dependent Effect
same,inhibition,[9],25%
CC[C@H](C)[C@@H]1NC(=O)[C@H](CCC(=O)O)NC(=O)[C@@H]2CCCN2C(=O)[C@H](Cc2cnc[nH]2)NC(=O)[C@H](CC(=O)O)NC(=O)[C@H](Cc2ccc(O)cc2)NC(=O)[C@H](CC(N)=O)NC(=O)[C@@H]2CC#CC[C@@H](NC(=O)CN)C(=O)N[C@H](CSSC[C@@H](C(N)=O)NC1=O)C(=O)N[C@@H](CO)C(=O)N[C@@H](CC(=O)O)C(=O)N1CCC[C@H]1C(=O)N[C@@H](CCCNC(=N)N)C(=O)N2,inhibition,[1],26%
same,inhibition,[10],inactive
same,inhibition,[11],inactive
same,Activity,[12],5.5 g
same,Activity,[13],5.5 g
same,inhibition,[4],26%
same,Activity,[14],Dose-Dependent Effect
same,Activity,[15],5.38 g
same,pIC50,[6],7.89
same,Activity,[16],3.88 g
same,Activity,[17],4.88 g
same,inhibition,[8],inactive
same,inhibition,[9],26%
CC[C@H](C)[C@@H]1NC(=O)[C@H](CCC(=O)O)NC(=O)[C@@H]2CCCN2C(=O)[C@H](Cc2cnc[nH]2)NC(=O)[C@H](CC(=O)O)NC(=O)[C@H](Cc2ccc(O)cc2)NC(=O)[C@H](CC(N)=O)NC(=O)[C@@H]2CCCC[C@@H](NC(=O)CN)C(=O)N[C@H](CSSC[C@@H](C(N)=O)NC1=O)C(=O)N[C@@H](CO)C(=O)N[C@@H](CC(=O)O)C(=O)N1CCC[C@H]1C(=O)N[C@@H](CCCNC(=N)N)C(=O)N2,inhibition,[1],0.06%
same,inhibition,[10]; filed as antagonist,> 90%
same,inhibition,[4],0.06%
same,inhibition,[9],0.06%
